Measured values reported in PMC9504985, “Identification of Novel Aryl Carboxamide Derivatives as Death-Associated Protein Kinase 1 (DAPK1) Inhibitors with Anti-Proliferative Activities: Design, Synthesis, In Vitro, and In Silico Biological Studies” (Pharmaceuticals, 2022).

The molecules below were run against T1, Death-associated protein kinase 1 (DAPK1) (Homo sapiens, UniProt P53355) (assay: 10-dose kinase assay (Reaction Biology HotSpot)). Details: not given.
T1 sequence (P53355 whole entry): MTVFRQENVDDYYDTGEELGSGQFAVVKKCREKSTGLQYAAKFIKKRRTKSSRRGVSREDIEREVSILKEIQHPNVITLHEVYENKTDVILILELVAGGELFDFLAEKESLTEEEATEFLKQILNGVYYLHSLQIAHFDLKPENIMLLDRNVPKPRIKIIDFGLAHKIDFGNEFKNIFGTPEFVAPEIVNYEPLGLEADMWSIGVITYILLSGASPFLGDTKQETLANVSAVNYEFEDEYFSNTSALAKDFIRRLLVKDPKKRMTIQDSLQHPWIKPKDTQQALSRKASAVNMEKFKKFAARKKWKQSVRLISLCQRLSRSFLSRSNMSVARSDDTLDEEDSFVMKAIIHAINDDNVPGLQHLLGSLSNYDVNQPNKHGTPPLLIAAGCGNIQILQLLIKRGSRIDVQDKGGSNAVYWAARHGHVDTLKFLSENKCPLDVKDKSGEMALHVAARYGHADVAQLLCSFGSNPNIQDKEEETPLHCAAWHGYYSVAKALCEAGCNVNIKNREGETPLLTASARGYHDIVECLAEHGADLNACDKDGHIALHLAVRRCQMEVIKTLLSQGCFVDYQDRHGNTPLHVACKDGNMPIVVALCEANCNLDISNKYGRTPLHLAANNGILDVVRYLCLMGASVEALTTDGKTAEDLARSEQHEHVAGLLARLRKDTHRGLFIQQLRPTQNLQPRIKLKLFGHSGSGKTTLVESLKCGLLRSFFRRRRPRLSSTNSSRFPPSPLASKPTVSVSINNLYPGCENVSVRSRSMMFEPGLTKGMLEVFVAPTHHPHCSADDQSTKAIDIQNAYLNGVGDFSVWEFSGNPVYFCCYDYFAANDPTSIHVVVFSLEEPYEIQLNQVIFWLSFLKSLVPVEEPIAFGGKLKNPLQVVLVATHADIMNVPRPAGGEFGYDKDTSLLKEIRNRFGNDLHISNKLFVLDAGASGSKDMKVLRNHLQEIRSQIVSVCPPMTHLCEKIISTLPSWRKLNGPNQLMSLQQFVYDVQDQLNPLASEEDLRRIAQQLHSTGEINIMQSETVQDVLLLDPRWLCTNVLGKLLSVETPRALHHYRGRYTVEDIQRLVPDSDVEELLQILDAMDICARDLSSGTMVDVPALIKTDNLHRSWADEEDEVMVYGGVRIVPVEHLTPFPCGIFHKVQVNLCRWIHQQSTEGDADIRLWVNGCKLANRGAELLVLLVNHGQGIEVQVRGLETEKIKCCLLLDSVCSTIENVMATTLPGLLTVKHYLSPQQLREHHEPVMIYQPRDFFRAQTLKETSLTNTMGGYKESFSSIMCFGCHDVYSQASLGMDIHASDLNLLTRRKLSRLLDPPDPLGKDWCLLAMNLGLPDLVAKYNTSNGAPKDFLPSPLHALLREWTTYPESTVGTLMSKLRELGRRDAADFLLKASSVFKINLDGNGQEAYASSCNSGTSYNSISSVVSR
Format: biochemical
`O=C(Nc1ccc(Oc2cccc(Cl)c2)c(Cl)c1)c1ccncc1` [4q, N-(3-chloro-4-(3-chlorophenoxy)phenyl) isonicotinamide] showed an IC50 of 1.09 µM. `O=C(Nc1ccc(Oc2ccc(F)cc2)c(Cl)c1)c1ccncc1` [4k, N-(3-chloro-4-(4-fluorophenoxy)phenyl) isonicotinamide] gave an IC50 of 7.26 µM. In the case of `O=C(Nc1ccc(Oc2ccc(F)cc2)c(Cl)c1)c1cccnc1` [4j, N-(3-chloro-4-(4-fluorophenoxy)phenyl) nicotinamide], the IC50 is reported as 1.7 µM. Work on `O=C(Nc1ccc(Oc2ccc(F)cc2)c(Cl)c1)c1ccccn1` [4h, N-(3-chloro-4-(4-fluorophenoxy)phenyl) picolinamide] yielded an IC50 of 6.81 µM.

Each molecule was assayed against T1, Death-associated protein kinase 1 (DAPK1) (assay: single-dose kinase assay, % inhibition at […]). Details: read-out: % Inhibition against DAPK1 ^a.
Format: biochemical
With `O=C(Nc1ccc(Oc2cccc(Cl)c2)c(Cl)c1)c1cccnc1` [4p, N-(3-chloro-4-(3-chlorophenoxy)phenyl) nicotinamide] the inhibition at 10 µM was 61.5%. For `O=C(Nc1ccc(Oc2cccc(Cl)c2)c(Cl)c1)c1cccnn1` [4n, N-(3-chloro-4-(3-chlorophenoxy)phenyl) pyridazine-3-carboxamide], the inhibition at 10 µM was 61.5%. `O=C(Nc1ccc(Oc2cccc(Cl)c2)c(Cl)c1)c1ccccn1` [4m, N-(3-chloro-4-(3-chlorophenoxy)phenyl) picolinamide] showed an inhibition at 10 µM of 61.7%. In the case of `O=C(Nc1ccc(Oc2cccc(Cl)c2)c(Cl)c1)c1ccnnc1` [4r, N-(3-chloro-4-(3-chlorophenoxy)phenyl) pyridazine-4-carboxamide], the inhibition at 10 µM is reported as 60%.
